In patent US12391672B2, “Solid forms comprising (S)-4-(4-(4-(((2-(2,6-dioxopiperidin-3-yl)-1-oxoisoindolin-4-yl)oxy)methyl)benzyl)piperazin-1-yl)-3-fluorobenzonitrile and salts thereof, and compositions comprising and methods of using the same” (Celgene Corporation, priority 2019, dated 2025):
Several values for one entry are separate records, joined by “and”; a condition that tells them apart may be missing. Equal values may be shown once.

Assays:
[1] = Solubility determination (15 minutes at room temperature, HPLC); type: physicochemical; conditions: fifteen minutes
Experimental: 1 mL of buffer or of ultrapure (resistivity≥18.2 Mf cm) water was added to a pre-weighed, approximately twenty milligram aliquot of the substance to be measured. The resulting suspensions were stirred for 15 minutes at room temperature with magnetic stirrers. The suspensions were centrifuged and filtered through Millipore 0.2 μm PVDF filters, and the concentration of each filtrate (i.e., saturated solution) was determined using a general HPLC method. The pH of each saturated solution was measured with a Metrohm 713 pH meter.
To assess whether Form K and Form K′ are likely to have different bioavailabilities, comparative solubility measurements were carried out in physiologically relevant media. Samples of Form K and Form K′ were separately equilibrated in pure water, pH 2.0 buffer, and pH 6.8 buffer for fifteen minutes, and the solids were then separated from the solvents. The concentration of the compound in the filtrate (i.e., the solubility) was assessed in each case, and the solid residues were also monitored by powder X-ray diffraction. All six solid residues correspond to Form K, confirming that Form K′ rapidly incorporates water into its lattice when suspended in an aqueous environment even when the solubility is low. While the solubilities in pure water and at pH 6.8 were below the limit of quantitation of 0.0001 mg/mL, the solubilities at pH 2.0 could be measured. […] Thus, the bioavailabilities of the two forms are expected to be similar, and precise control of the water content (and, thereby, the solid form) is presumably not necessary from a scientific point of view. Given that the critical water activity is in the range aH2O=0.11-0.17, the hydrated Form K is likely to be the more easily stabilized of the two forms under ambient laboratory conditions.

[2] = Storage at controlled relative humidities (Form K / Form K′); type: physicochemical
From the text: It was noticed that after Form K was dried, the XRPD peaks of Form K shifted to a higher value and the resulting XRPD pattern is called Form K′. To further understand the relationships between the two forms, free base Form K and Form K′ were placed on XRPD sample holders and stored in a closed Jars with saturated salt solutions for RH controls at ambient temperature, respectively. […] The XRPD diffractograms of the samples after 2-day storage are presented in FIG. 132 and FIG. 133, respectively. […] Since the peaks of Form K shifted to higher 2-theta value as Form K loses water molecules to Form K′, Form K and Form K′ are on a continuum.

## N#Cc1ccc(N2CCN(Cc3ccc(COc4cccc5c4CN([C@H]4CCC(=O)NC4=O)C5=O)cc3)CC2)c(F)c1.O [Form K of a free base of Compound 1]
[1]; pH 2.0 buffer
  solubility at pH 2.0: 0.96 mg/mL
[1]; pure water, pH 2.0 buffer and pH 6.8 buffer
  solid residue after solubility measurement (powder X-ray diffraction): Form K
[2]; 11% RH, ambient temperature
  form conversion on storage (XRPD): converts to K′
[2]; aH2O
  critical water activity range for interconversion of Form K and Form K′: 0.11-0.22 and 0.11-0.17
[2]; stored at 17% r.h. and r.t. for 5.5 d
  PXRD result after storage: Form K
